#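 Five concentrations, 48 hours, 96-well plates. GI50 = concentration required for 50% inhibition of growth. TGI marks complete inhibition of growth.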
# Tests used:
# Assay in all cases: growth of human tumour cells (NCI), 48 h
# [1] = tested on: BT-549 breast
# [2] = tested on: PC-3 prostate
# [3] = tested on: MCF7 breast
# [4] = tested on: SK-MEL-2 melanoma
# [5] = tested on: NCI-H460 lung
# [6] = tested on: HCT-15 colon
# [7] = tested on: MDA-MB-231 breast
# [8] = tested on: A498 renal
# [9] = tested on: SF-295 CNS
# [10] = tested on: NCI/ADR-RES ovarian
# [11] = tested on: EKVX NSCLC
# [12] = tested on: SW-620 colon
# [13] = tested on: OVCAR-3 ovarian
# [14] = tested on: SN12C renal
# [15] = tested on: UO-31 renal
# [16] = tested on: HT29 colon
# [17] = tested on: MDA-MB-435
# [18] = tested on: U251 CNS
# [19] = tested on: SF-268 CNS
# [20] = tested on: SK-MEL-28 melanoma
# [21] = tested on: MALME-3M melanoma
# [22] = tested on: SF-539 CNS
# [23] = tested on: SK-MEL-5 melanoma
# [24] = tested on: LOX IMVI melanoma
# [25] = tested on: T-47D breast
# [26] = tested on: NCI-H522 lung
# [27] = tested on: CCRF-CEM leukemia
# [28] = tested on: HS 578T breast
# [29] = tested on: UACC-62 melanoma
# [30] = tested on: RXF 393 renal
# [31] = tested on: UACC-257 melanoma
# [32] = tested on: M14 melanoma
# [33] = tested on: RPMI-8226 leukemia
# [34] = tested on: KM12 colon
# [35] = tested on: HOP-62 NSCLC
# [36] = tested on: SK-OV-3 ovarian
# [37] = tested on: HCC-2998 colon
# [38] = tested on: IGROV1 ovarian
# [39] = tested on: CAKI-1 renal
# [40] = tested on: ACHN renal
# [41] = tested on: SNB-75 CNS
# [42] = tested on: HCT-116 colon
# [43] = tested on: HOP-92 NSCLC
# [44] = tested on: OVCAR-8 ovarian
# [45] = tested on: COLO 205 colon
# [46] = tested on: OVCAR-4 ovarian
# [47] = tested on: A549 NSCLC
# [48] = tested on: SNB-19 CNS
# [49] = tested on: DU-145 prostate
# [50] = tested on: NCI-H226 lung
# [51] = tested on: OVCAR-5 ovarian
# [52] = tested on: TK-10 renal
# [53] = tested on: 786-0 renal
compound,measurement,setting,value
COc1cc2nc(-c3ccc(C(F)(F)F)cc3)cc(OCCCNCC3CCCO3)c2cc1OC (stereo unspecified),GI50,[1],6.92 µM
same,TGI,[1],21.1 µM
same,GI50,[2],3.8 µM
same,TGI,[2],17.2 µM
same,GI50,[3],3.23 µM
same,TGI,[3],15.9 µM
same,GI50,[4],13.7 µM
same,TGI,[4],26.9 µM
same,GI50,[5],3.89 µM
same,TGI,[5],15.8 µM
same,GI50,[6],3.1 µM
same,TGI,[6],12.3 µM
same,GI50,[7],3.79 µM
same,TGI,[7],17 µM
same,GI50,[8],20.6 µM
same,TGI,[8],37 µM
same,GI50,[9],8.68 µM
same,TGI,[9],22 µM
same,GI50,[10],6.92 µM
same,TGI,[10],24.5 µM
same,GI50,[11],4.22 µM
same,TGI,[11],18.6 µM
same,GI50,[12],8.16 µM
same,TGI,[12],22 µM
same,GI50,[13],12.3 µM
same,TGI,[13],27.5 µM
same,GI50,[14],4.63 µM
same,TGI,[14],18.4 µM
same,GI50,[15],2.53 µM
same,TGI,[15],15.6 µM
same,GI50,[16],2.98 µM
same,TGI,[16],11.2 µM
same,GI50,[17],3.13 µM
same,TGI,[17],11.7 µM
same,GI50,[18],7.37 µM
same,TGI,[18],26.5 µM
same,GI50,[19],10.4 µM
same,TGI,[19],25 µM
same,GI50,[20],5.77 µM
same,TGI,[20],19.3 µM
same,GI50,[21],3.17 µM
same,TGI,[21],13.8 µM
same,GI50,[22],11.2 µM
same,TGI,[22],24 µM
same,GI50,[23],11.7 µM
same,TGI,[23],24.7 µM
same,GI50,[24],1.61 µM
same,TGI,[24],4.33 µM
same,GI50,[25],4.06 µM
same,TGI,[25],19 µM
same,GI50,[26],3.05 µM
same,TGI,[26],13.8 µM
same,GI50,[27],6.61 µM
same,TGI,[27],24.4 µM
same,GI50,[28],10.4 µM
same,TGI,[28],25.8 µM
same,GI50,[29],3.54 µM
same,TGI,[29],14.5 µM
same,GI50,[30],1.38 µM
same,TGI,[30],5.23 µM
same,GI50,[31],2.01 µM
same,TGI,[31],4.79 µM
same,GI50,[32],3.09 µM
same,TGI,[32],12.4 µM
same,GI50,[33],2.39 µM
same,TGI,[33],12.2 µM
same,GI50,[34],5.49 µM
same,TGI,[34],20.5 µM
same,GI50,[35],6.01 µM
same,TGI,[35],21.4 µM
same,GI50,[36],12.4 µM
same,TGI,[36],25.8 µM
same,GI50,[37],10.3 µM
same,TGI,[37],23.6 µM
same,GI50,[38],4.41 µM
same,TGI,[38],18.8 µM
same,GI50,[39],1.74 µM
same,TGI,[39],5.32 µM
same,GI50,[40],4.89 µM
same,TGI,[40],18.2 µM
same,GI50,[41],8.45 µM
same,TGI,[41],21.9 µM
same,GI50,[42],3.45 µM
same,TGI,[42],14.8 µM
same,GI50,[43],1.57 µM
same,TGI,[43],7.85 µM
same,GI50,[44],3.72 µM
same,TGI,[44],16.6 µM
same,GI50,[45],3.09 µM
same,TGI,[45],17.7 µM
same,GI50,[46],9.01 µM
same,TGI,[46],21.5 µM
same,GI50,[47],4.43 µM
same,TGI,[47],21.2 µM
same,GI50,[48],13.3 µM
same,TGI,[48],28.4 µM
same,GI50,[49],9.03 µM
same,TGI,[49],21.7 µM
same,GI50,[50],2.51 µM
same,TGI,[50],8.6 µM
same,GI50,[51],4.09 µM
same,TGI,[51],17.5 µM
same,GI50,[52],12.2 µM
same,TGI,[52],25.3 µM
same,GI50,[53],6.44 µM
same,TGI,[53],21.1 µM
